{"source": "patent US8263564B2", "about": "“Iron-carbohydrate complex compounds” (Vifor (International) AG, priority 2007, dated 2012)", "origin": "cited, not measured here", "system": "mice", "settings": "intravenously on mice; Berenbaum et al. 1960 cited in Geisser et al. 1992", "data": [{"smiles": "O=S(=O)([O-])[O-].[Fe+2]", "note": "[Fe(II) sulfate]", "values": [{"measurement": "LD50", "value": "11 mg of Fe/kg of body weight"}]}]}
